# Measured values from ChEMBL document CHEMBL1150810, “Structure and neurotrophic activity of seco-prezizaane-type sesquiterpenes from Illicium merrillianum” (J Nat Prod, 2001).
# Calls of active or inactive are those of the source. The calls are words filed in the database; no cut-off is given here.
# Tested on: Cortical neurone
# Assay: Neurotrophic activity in Sprague-Dawley rat cortical neurons assessed as promotion of neurite outgrowth at 0.1 to 10 uM
# Format: functional
row,SMILES,Activity
1,C[C@@H]1CC[C@@]2(O)[C@@]13C[C@@]1(O)OC(OC[C@@]2(C)[C@@]1(C)O)[C@@H]3O,inactive
2,C[C@@H]1CC[C@@]2(O)C13CC(=O)C1(C)C2(C)CO[C@]1(OC(=O)c1ccccc1)[C@@H]3O,inactive
3,C[C@@H]1CC[C@@]2(O)C13CC(=O)C1(C)C2(C)CO[C@]1(O)[C@@H]3O,Active
4,CC1=CC[C@]2(O)[C@@]3(C)COC4O[C@](O)(C[C@@]12[C@H]4O)[C@]3(C)O,inactive
5,C[C@@H]1C[C@@H](O)[C@@]2(O)[C@@]13C[C@@]1(O)OC(OC[C@@]2(C)[C@@]1(C)O)[C@@H]3O,inactive
6,C[C@@H]1CC=C2[C@@]13C[C@@]1(O)OC(OC[C@@]2(C)[C@@]1(C)O)[C@@H]3O,inactive
